Counter-ions that a name gives are not always drawn.
Test system: HCT116
Conditions: 72 h
In short: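 HCT116 cells were plated at 250 per well in 1536-well plates and allowed 5 h to attach. CellTiter-Glo luminescence was normalized to vehicle as 0% and positive control as -100%, followed by pattern correction. Four-parameter Hill fits provided IC50 and maximal efficacy.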

SMILES | IC50 cell viability (ICRF193 0 nM) [µM] | IC50 cell viability (ICRF193 200 nM) [µM]
C=CCN.ClCC1CO1 (stereo unspecified) [Sevelamer Hydrochloride (Technical Grade)] | > 45.8 | > 45.8
CCC1NC(=O)c2cc(S(N)(=O)=O)c(Cl)cc2N1 (stereo unspecified) [Quinethazone] | > 45.8 | > 45.8
CCN(CC)C(=O)N[C@@H]1C=C2c3cccc4[nH]cc(c34)C[C@@H]2N(C)C1 [(-)-(5S,8R)-Lisuride] | > 45.8 | > 45.8
CCCNC(C)C(=O)Nc1c(C)csc1C(=O)OC (stereo unspecified) [Articaine hydrochloride] | > 45.8 | > 45.8
CC(C)(C#N)c1cc(Cn2cncn2)cc(C(C)(C)C#N)c1 [Anastrozole] | > 45.8 | > 45.8
CCCCC(CC)CN1CN(CC(CC)CCCC)CC(C)(N)C1 (stereo unspecified) [Hexetidine] | > 45.8 | > 45.8
O=C(O)CCCc1ccc(N(CCCl)CCCl)cc1 [Chlorambucil] | > 45.8 | > 45.8
Nc1ccc(O)c(C(=O)O)c1 [5-Aminosalicylic acid] | > 45.8 | > 45.8
CNCC(O)c1ccc(OC(=O)C(C)(C)C)c(OC(=O)C(C)(C)C)c1 (stereo unspecified) [Dipivefrin hydrochloride] | > 45.8 | > 45.8
Cc1nn(C)c2c1C(c1ccccc1F)=NCC(=O)N2C [Zolazepam Hydrochloride] | > 45.8 | > 45.8
CC[N+](C)(CC)CCOC(=O)C(O)(c1ccccc1)c1ccccc1 [Benzactyzine methobromide] | > 45.8 | > 45.8
Cc1cc(O)cc2c1O[C@](C)(CCC[C@H](C)CCC[C@H](C)CCCC(C)C)CC2 [D-delta-Tocopherol] | > 45.8 | > 45.8
NC(CO)(CO)CO [Tromethamine] | > 45.8 | > 45.8
CCCCC(CC)COc1ccc(-c2nc(-c3ccc(OC)cc3)nc(-c3ccc(OCC(CC)CCCC)cc3O)n2)c(O)c1 (stereo unspecified) [BEMOTRIZINOL] | > 45.8 | > 45.8
CCS(=O)(=O)CCn1c([N+](=O)[O-])cnc1C [Tinidazole] | > 45.8 | > 45.8
CCC(CN)=C(c1ccccc1)c1ccccc1 [Etifelmine hydrochloride] | > 45.8 | > 45.8
Cc1cccc(Nc2ccccc2C(=O)O)c1C [Mefenamic acid] | > 45.8 | > 45.8
COC(=O)N[C@H](C(=O)N[C@@H](Cc1ccccc1)[C@@H](O)CN(Cc1ccc(-c2ccccn2)cc1)NC(=O)[C@@H](NC(=O)OC)C(C)(C)C)C(C)(C)C [Atazanavir] | > 45.8 | > 45.8

SMILES | IC50 cell viability (ICRF193 0 nM) [µM] | IC50 cell viability (ICRF193 200 nM) [µM]
N[C@H](Cc1c[nH]cn1)C(=O)O [D-HISTIDINE] | > 45.8 | > 45.8
Cn1c(NCCN(CCO)CCCc2ccc([N+](=O)[O-])cc2)cc(=O)n(C)c1=O [Nifekalant] | > 45.8 | > 45.8
CO[C@@]1(NC(=O)CSC[C@@H](N)C(=O)O)C(=O)N2C(C(=O)O)=C(CSc3nnnn3C)CS[C@@H]21 [Cefminox sodium] | > 45.8 | > 45.8
CC(C)/N=c1\cc2n(-c3ccc(Cl)cc3)c3ccccc3nc-2cc1Nc1ccc(Cl)cc1 [Clofazimine] | > 45.8 | > 45.8
Clc1ccc(C(c2ccccc2Cl)C(Cl)Cl)cc1 (stereo unspecified) [Mitotane] | > 45.8 | > 45.8
OC[C@H]1O[C@H](O[C@H]2[C@H](O)[C@@H](O)C(O)O[C@@H]2CO)[C@H](O)[C@@H](O)[C@@H]1O (stereo partly drawn) [D-(+)-MALTOSE] | > 45.8 | > 45.8
Cc1cnc(NC(=O)C2=C(O)c3ccccc3S(=O)(=O)N2C)s1 [MELOXICAM SODIUM] | > 45.8 | > 45.8
Cc1ccc(C(C)C)c(O)c1 [Thymol] | > 45.8 | > 45.8
CC(C)(C)C(O)/C=C/c1ccc2c(c1)OCO2 (stereo unspecified) [Stiripentol] | > 45.8 | > 45.8
O=C(O)CCC(=O)OC[C@@H](NC(=O)C(Cl)Cl)[C@H](O)c1ccc([N+](=O)[O-])cc1 [Chloramphenicol sodium succinate] | > 45.8 | > 45.8
C[C@H]1CNCCCN1S(=O)(=O)c1cccc2cncc(F)c12 [Ripasudil] | > 45.8 | > 45.8
CCCCCCCCCCCCCCCC(=O)OC[C@H](O)[C@H]1OC(=O)C(O)=C1O [L-Ascorbyl 6-palmitate] | > 45.8 | > 45.8
CCN1C[C@]2(COC)[C@H](O)C[C@H](OC)[C@@]34[C@@H]5C[C@@]6(O)[C@H](OC(=O)c7ccccc7)[C@@H]5[C@@](OC(C)=O)([C@@H]([C@H](OC)[C@H]23)[C@@H]14)[C@@H](O)[C@@H]6OC [Aconitine] | > 45.8 | > 45.8
CCCCCCCCCCCC(=O)OCN1C(=O)CCc2ccc(OCCCCN3CCN(c4cccc(Cl)c4Cl)CC3)cc21 [ARIPIPRAZOLE LAUROXIL] | > 45.8 | > 45.8
NC(=O)NC(=O)Cc1ccccc1 [Phenacemide] | > 45.8 | > 45.8
Cc1nnc(NS(=O)(=O)c2ccc(N)cc2)s1 [Sulfamethizole] | > 45.8 | > 45.8
C=CC=CCC1=C(C)C(OC(=O)C2C(C=C(C)C)C2(C)C)CC1=O (stereo unspecified) [Pyrethrin 1] | > 45.8 | > 45.8
FC(F)(F)C(F)(F)C(F)(F)C(F)(F)C(F)(F)F [Perflenapent] | > 45.8 | > 45.8

More lines, now with the values ahead:

IC50 cell viability (ICRF193 0 nM) [µM] | IC50 cell viability (ICRF193 200 nM) [µM] | SMILES
> 45.8 | > 45.8 | C[N+]1(CC2COC(c3ccccc3)(C3CCCCC3)O2)CCCCC1 (stereo unspecified) [Oxapium iodide]
> 45.8 | > 45.8 | CC1=C(C(=O)O)N2C(=O)[C@@H](NC(=O)[C@H](N)c3ccc(O)cc3)[C@H]2SC1 [Cefadroxil]
> 45.8 | > 45.8 | CC(=O)N[C@H]1[C@H]([C@H](O)[C@H](O)CO)OC(C(=O)O)=C[C@@H]1NC(=N)N [Zanamivir]
> 45.8 | > 45.8 | N[C@@H]1CCCCN(c2c(F)cc3c(=O)c(C(=O)O)cn(C4CC4)c3c2Cl)C1 [Besifloxacin Hydrochloride]
> 45.8 | > 45.8 | O=C(CCC1CCN(Cc2ccccc2)CC1)c1ccc2c(c1)NCCCC2 [Zanapezil fumerate]
> 45.8 | > 45.8 | COc1c(N2CCNC(C)C2)c(F)cc2c(=O)c(C(=O)O)cn(C3CC3)c12 (stereo unspecified) [Gatifloxacin]
> 45.8 | > 45.8 | COc1ccc(-n2nc(C(N)=O)c3c2C(=O)N(c2ccc(N4CCCCC4=O)cc2)CC3)cc1 [Apixaban]
> 45.8 | > 45.8 | CC(=O)[C@H]1CC[C@H]2[C@@H]3CC=C4C[C@@H](O)CC[C@]4(C)[C@H]3CC[C@]12C [Pregnenolone]
> 45.8 | > 45.8 | CCC(=O)OCC(=O)[C@@]1(OC(=O)CC)[C@@H](C)C[C@H]2[C@@H]3CCC4=CC(=O)C=C[C@]4(C)[C@@]3(F)[C@@H](O)C[C@@]21C [BETAMETHASONE 17,21-DIPROPIONATE]
> 45.8 | > 45.8 | CCN1CCN(C(=O)N[C@@H](C(=O)N[C@@H]2C(=O)N3[C@@H]2SC(C)(C)[C@@H]3C(=O)O)c2ccccc2)C(=O)C1=O [Piperacillin sodium salt]
> 45.8 | > 45.8 | CN(C)CCOC(=O)C(c1ccccc1)C1(O)CCCC1 (stereo unspecified) [Cyclopentolate hydrochloride]
> 45.8 | > 45.8 | CC(=O)OCC(=O)[C@@]12OC(C)(C)O[C@@H]1C[C@H]1[C@@H]3C[C@H](F)C4=CC(=O)C=C[C@]4(C)[C@@]3(F)[C@@H](O)C[C@@]12C [Fluocinonide]
> 45.8 | > 45.8 | CC1(C)S[C@@H]2[C@H](NC(=O)[C@H](N)c3ccc(O)cc3)C(=O)N2[C@H]1C(=O)O [Amoxicillin sodium]
> 45.8 | > 45.8 | CCCCCCCCCCCCCCCC(=O)OC/C=C(C)/C=C/C=C(C)/C=C/C1=C(C)CCCC1(C)C [Retinyl palmitate]
> 45.8 | > 45.8 | CC1(C)OC(=O)C(OCC2CC2)=C1c1ccc(S(C)(=O)=O)cc1 [FIROCOXIB]
> 45.8 | > 45.8 | CCC(=O)O[C@@H]1CC(=O)O[C@H](C)C/C=C/C=C/[C@H](OC(C)=O)[C@H](C)C[C@H](CC=O)[C@H](O[C@@H]2O[C@H](C)[C@@H](O[C@H]3C[C@@](C)(OC(C)=O)[C@@H](OC(=O)CC)[C@H](C)O3)[C@H](N(C)C)[C@H]2O)[C@H]1OC [Midecamycin Acetate]
> 45.8 | > 45.8 | CCC(=O)O[C@]1(C(=O)SCF)[C@H](C)C[C@H]2[C@@H]3C[C@H](F)C4=CC(=O)C=C[C@]4(C)[C@@]3(F)[C@@H](O)C[C@@]21C [Fluticasone propionate]
> 45.8 | > 45.8 | Cc1cc(N2CCN([C@@H]3CN[C@H](C(=O)N4CCSC4)C3)CC2)n(-c2ccccc2)n1 [Teneligliptin]
> 45.8 | > 45.8 | CN[C@@H]1[C@@H](O[C@H]2O[C@H](CO)[C@@H](N)[C@H](O)[C@H]2O)OC2C[C@@H](N)[C@@H](O[C@H]3[C@H](O)[C@@H](O)[C@H](N)C[C@@H]3N)OC2[C@@H]1O (stereo partly specified) [APRAMYCIN SULFATE]
> 45.8 | > 45.8 | CN(c1nccc(=O)[nH]1)C1CCN(c2nc3ccccc3n2Cc2ccc(F)cc2)CC1 [Mizolastine]
> 45.8 | > 45.8 | CCC(=O)NCC[C@@H]1CCc2ccc3c(c21)CCO3 [Ramelteon]
> 45.8 | > 45.8 | CCn1cc(C(=O)O)c(=O)c2cnc(N3CCNCC3)nc21 [Pipemidic acid]
